Measurements published in patent US8137705B2 (priority 2005, dated 2012).
Entries after “also recorded” stand apart in the source; their conditions may differ.

Test system: E. coli O157:H7
Experiment: E. coli O157:H7 counts in water with rumen content treated with ozone
Assay type: cell-based
Conditions: for E. coli O157:H7 (log10 cfu/ml) at min: 0: 0 min; for E. coli O157:H7 (log10 cfu/ml) at min: 1: 1 min; for E. coli O157:H7 (log10 cfu/ml) at min: 2: 2 min; for E. coli O157:H7 (log10 cfu/ml) at min: 5: 5 min; for E. coli O157:H7 (log10 cfu/ml) at min: 10: 10 min; for E. coli O157:H7 (log10 cfu/ml) at min: 20: 20 min
Method: Ozone was produced by an laboratory scale ozone generator (Model H-50, Hess Machine International, Ephrata, Pa.) equipped with an oxygen concentrator (Model AS-12, AirSep, Buffalo, N.Y.) and ozone concentrations (ppm) were measured by the indigo calorimeter method. Ozonated (22-24 ppm at 5° C.) water was mixed with rumen content at ratios of 100:1, 50:1, 25:1, 10:1, and 5:1. MilliQ water (Milli-Q Synthesis A10, Millipore Corp. Brillerica, Mass.) was used as the control. One ml of a mixture of 5 strains of E. coli O157:H7 (10^8 cfu) was mixed with 199 ml of the ozonated water with rumen content at 5° C. and sampled from 0 to 20 min. At each sampling time, 1 ml was removed, and immediately mixed with 9 ml of neutralizing buffer and serially (1:10) diluted and a volume of 0.1 ml from each dilution tube was plated on SMA-NA and TSA-NA plates in duplicate. Plates were incubated at 37° C. for 24 h. Presumptive E. coli O157:H7 colonies were counted and confirmed according to the method described above. All studies were done in duplicate.

[1] = 22-24 ppm ozone, Ozonated water only (no rumen content), 5° C.
[2] = 22-24 ppm ozone, water:rumen content 20:1, 5° C.
[3] = 22-24 ppm ozone, water:rumen content 50:1, 5° C.
[4] = 22-24 ppm ozone, water:rumen content 100:1, 5° C.
[5] = 22-24 ppm ozone, water:rumen content 200:1, 5° C.

Structure (SMILES): O=[O+][O-] [ozone]
- killing of 10^6-10^7 E. coli O157:H7/ml (22-24 ppm ozone, 5° C., water with no rumen content, direct plating): undetectable level
- E. coli O157:H7 inactivation (22-24 ppm ozone, 50 parts water to 1 part rumen content): Little to no E. coli O157:H7 inactivation
- effect of rumen content on antimicrobial activity of ozone (22-24 ppm ozone, 100 parts water to 1 part rumen content or more): neutralized; also recorded: greatly decreased the antimicrobial activity
- E. coli O157:H7 (log10 cfu/ml) at min: 0 [1]: <1.7 log10 cfu/ml
- E. coli O157:H7 (log10 cfu/ml) at min: 1 [1]: <1.7 log10 cfu/ml
- E. coli O157:H7 (log10 cfu/ml) at min: 2 [1]: <1.7 log10 cfu/ml
- E. coli O157:H7 (log10 cfu/ml) at min: 5 [1]: <1.7 log10 cfu/ml
- E. coli O157:H7 (log10 cfu/ml) at min: 10 [1]: <1.7 log10 cfu/ml
- E. coli O157:H7 (log10 cfu/ml) at min: 20 [1]: <1.7 log10 cfu/ml
- E. coli O157:H7 (log10 cfu/ml) at min: 0 [2]: 5.6 log10 cfu/ml
- E. coli O157:H7 (log10 cfu/ml) at min: 1 [2]: 5.2 log10 cfu/ml
- E. coli O157:H7 (log10 cfu/ml) at min: 2 [2]: 5.1 log10 cfu/ml
- E. coli O157:H7 (log10 cfu/ml) at min: 5 [2]: 5.1 log10 cfu/ml
- E. coli O157:H7 (log10 cfu/ml) at min: 10 [2]: 5.4 log10 cfu/ml
- E. coli O157:H7 (log10 cfu/ml) at min: 20 [2]: 5.2 log10 cfu/ml
- E. coli O157:H7 (log10 cfu/ml) at min: 0 [3]: 6.2 log10 cfu/ml
- E. coli O157:H7 (log10 cfu/ml) at min: 1 [3]: 6.2 log10 cfu/ml
- E. coli O157:H7 (log10 cfu/ml) at min: 2 [3]: 6.4 log10 cfu/ml
- E. coli O157:H7 (log10 cfu/ml) at min: 5 [3]: 6.4 log10 cfu/ml
- E. coli O157:H7 (log10 cfu/ml) at min: 10 [3]: 6.5 log10 cfu/ml
- E. coli O157:H7 (log10 cfu/ml) at min: 20 [3]: 6.3 log10 cfu/ml
- E. coli O157:H7 (log10 cfu/ml) at min: 0 [4]: 5.2 log10 cfu/ml
- E. coli O157:H7 (log10 cfu/ml) at min: 1 [4]: 5.4 log10 cfu/ml
- E. coli O157:H7 (log10 cfu/ml) at min: 2 [4]: 5.5 log10 cfu/ml
- E. coli O157:H7 (log10 cfu/ml) at min: 5 [4]: 5.2 log10 cfu/ml
- E. coli O157:H7 (log10 cfu/ml) at min: 10 [4]: 4.5 log10 cfu/ml
- E. coli O157:H7 (log10 cfu/ml) at min: 20 [4]: 4.8 log10 cfu/ml
- E. coli O157:H7 (log10 cfu/ml) at min: 0 [5]: <1.7 log10 cfu/ml
- E. coli O157:H7 (log10 cfu/ml) at min: 1 [5]: <1.7 log10 cfu/ml
- E. coli O157:H7 (log10 cfu/ml) at min: 2 [5]: <1.7 log10 cfu/ml
- E. coli O157:H7 (log10 cfu/ml) at min: 5 [5]: <1.7 log10 cfu/ml
- E. coli O157:H7 (log10 cfu/ml) at min: 10 [5]: <1.7 log10 cfu/ml
- E. coli O157:H7 (log10 cfu/ml) at min: 20 [5]: <1.7 log10 cfu/ml
- effect on killing E. coli O157:H7 (ozone 22-24 ppm at 5° C. or 8-12 ppm at 21° C., rumen content at ratios of 50:1 and higher): minimal effect
